From patent US9029386B2, “Pyridine derivatives useful as kinase inhibitors” (YM Biosciences Australia Pty Ltd, priority 2006, dated 2015)

Tests used:
[1] = biological target: T1, EphA8(h) (Homo sapiens, UniProt P29322); assay: KinaseProfiler assay (Upstate), EphA8; assay type: biochemical
T1 construct: purchased Upstate Biotechnology (Dundee, UK), KinaseProfiler service
T1 sequence (P29322 28-1005): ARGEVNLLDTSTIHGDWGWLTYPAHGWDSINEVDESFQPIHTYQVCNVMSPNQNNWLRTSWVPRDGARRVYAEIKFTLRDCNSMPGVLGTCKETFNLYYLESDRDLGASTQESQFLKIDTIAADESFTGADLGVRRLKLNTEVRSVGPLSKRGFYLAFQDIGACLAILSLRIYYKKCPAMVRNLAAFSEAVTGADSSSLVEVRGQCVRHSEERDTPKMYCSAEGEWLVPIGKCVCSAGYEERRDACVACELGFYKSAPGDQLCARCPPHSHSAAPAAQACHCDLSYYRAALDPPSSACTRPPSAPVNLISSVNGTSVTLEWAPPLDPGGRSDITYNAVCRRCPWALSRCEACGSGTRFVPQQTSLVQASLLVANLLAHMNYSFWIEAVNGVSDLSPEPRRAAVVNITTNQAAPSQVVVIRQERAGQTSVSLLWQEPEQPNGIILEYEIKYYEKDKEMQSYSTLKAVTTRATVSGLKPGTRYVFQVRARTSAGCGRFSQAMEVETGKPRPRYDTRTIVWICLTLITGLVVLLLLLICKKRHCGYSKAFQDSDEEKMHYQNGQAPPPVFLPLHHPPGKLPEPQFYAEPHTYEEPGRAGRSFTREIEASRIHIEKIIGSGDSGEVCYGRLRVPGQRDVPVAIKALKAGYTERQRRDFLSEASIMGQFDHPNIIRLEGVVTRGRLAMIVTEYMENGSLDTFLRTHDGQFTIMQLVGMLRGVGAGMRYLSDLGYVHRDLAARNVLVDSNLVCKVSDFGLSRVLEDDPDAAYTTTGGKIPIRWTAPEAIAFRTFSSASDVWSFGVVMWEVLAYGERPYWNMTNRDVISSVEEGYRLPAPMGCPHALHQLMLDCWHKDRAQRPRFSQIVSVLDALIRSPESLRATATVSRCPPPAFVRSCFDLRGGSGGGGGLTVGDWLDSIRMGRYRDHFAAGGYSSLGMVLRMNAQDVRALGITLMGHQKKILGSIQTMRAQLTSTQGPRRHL
Procedure: (§1) Further enzyme assays were conducted at Upstate Biotechnology (Dundee, UK) in the KinaseProfiler™ Assay system.
(§2) The general protocol is as follows. All kinases are pre-diluted to a 10× working concentration prior to addition into the assay. The composition of the dilution buffer for the kinases is 20 mM MOPS pH 7.0, 1 mM EDTA, 0.1% β-mercaptoethanol, 0.01% Brij-35, 5% glycerol, 1 mg/ml BSA. All substrates are dissolved and diluted to working stocks in de-ionised water.

[2] = biological target: T2, Flt1(h) (Homo sapiens, UniProt P17948); assay: KinaseProfiler assay (Upstate), Flt1; assay type: biochemical
T2 construct: purchased Upstate Biotechnology (Dundee, UK), KinaseProfiler service
T2 sequence (P17948 27-1338): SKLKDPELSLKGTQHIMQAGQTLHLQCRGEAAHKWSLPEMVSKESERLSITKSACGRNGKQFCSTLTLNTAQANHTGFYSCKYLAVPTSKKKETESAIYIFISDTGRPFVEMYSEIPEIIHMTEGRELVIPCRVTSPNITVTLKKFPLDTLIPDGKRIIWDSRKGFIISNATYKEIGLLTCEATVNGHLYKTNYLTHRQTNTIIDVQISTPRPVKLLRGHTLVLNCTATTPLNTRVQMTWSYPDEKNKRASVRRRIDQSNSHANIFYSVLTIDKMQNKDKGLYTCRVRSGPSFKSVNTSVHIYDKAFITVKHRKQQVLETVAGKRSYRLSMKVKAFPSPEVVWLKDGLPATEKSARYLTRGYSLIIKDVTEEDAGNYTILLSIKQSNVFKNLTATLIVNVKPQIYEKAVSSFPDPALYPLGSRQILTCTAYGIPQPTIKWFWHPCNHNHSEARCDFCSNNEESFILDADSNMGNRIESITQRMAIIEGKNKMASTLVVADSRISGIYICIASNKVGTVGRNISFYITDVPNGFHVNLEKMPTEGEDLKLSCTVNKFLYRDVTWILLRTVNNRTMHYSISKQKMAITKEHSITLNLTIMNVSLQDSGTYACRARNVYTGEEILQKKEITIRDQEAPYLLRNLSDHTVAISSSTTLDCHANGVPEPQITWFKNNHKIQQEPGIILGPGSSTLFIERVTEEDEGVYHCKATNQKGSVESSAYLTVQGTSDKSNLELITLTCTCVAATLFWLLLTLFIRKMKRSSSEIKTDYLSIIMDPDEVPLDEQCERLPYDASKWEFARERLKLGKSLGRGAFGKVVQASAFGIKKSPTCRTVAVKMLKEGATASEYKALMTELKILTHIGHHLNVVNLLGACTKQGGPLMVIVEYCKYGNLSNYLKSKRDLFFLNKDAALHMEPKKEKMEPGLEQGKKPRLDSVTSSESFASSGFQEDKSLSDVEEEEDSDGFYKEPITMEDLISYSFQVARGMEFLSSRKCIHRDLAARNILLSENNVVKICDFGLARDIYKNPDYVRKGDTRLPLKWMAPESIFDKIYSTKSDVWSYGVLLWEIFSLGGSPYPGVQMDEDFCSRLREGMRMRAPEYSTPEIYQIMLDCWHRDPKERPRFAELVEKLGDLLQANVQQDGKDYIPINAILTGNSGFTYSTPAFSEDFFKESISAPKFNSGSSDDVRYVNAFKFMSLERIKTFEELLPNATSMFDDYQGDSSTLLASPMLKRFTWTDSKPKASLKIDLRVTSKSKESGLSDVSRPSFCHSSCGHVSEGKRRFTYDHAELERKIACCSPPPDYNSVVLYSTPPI
Procedure: as §1, §2
In a final reaction volume of 25 Flt1 (h) (5-10 mU) is incubated with 8 mM MOPS pH 7.0, 0.2 mM EDTA, 250 μM […], 10 mM MgAcetate and [γ-33P-ATP] (specific activity approx. 500 cpm/pmol, concentration as required). The reaction is initiated by the addition of the MgATP mix. After incubation for 40 minutes at room temperature, the reaction is stopped by the addition of 5 μl of a 3% phosphoric acid solution. 10 μl of the reaction is then spotted onto a P30 filtermat and washed three times for 5 minutes in 75 mM phosphoric acid and once in methanol prior to drying and scintillation counting.

[3] = system: Baf3-WT; assay: Cellular assay (Alamar Blue), Baf3-WT with mouse IL-3; assay type: cell-based; conditions: mouse IL-3 at 5 ng/ml, 72 hr
Procedure: Cells for the assays were prepared by harvesting cells from culture, and then diluting them in the appropriate growth medium to between 40,000 cell/mL and 600,000 cell/mL, depending on the cell line.
The compounds to be tested were added (104, 10× final concentration) to a flat bottomed 96-well plate. The cellular suspension (80 μL per well) was added, and one hour later the growth factor was added (human M-CSF at 20 ng/ml for mNFS-60, mouse IL-3 at 5 ng/ml for Baf3-WT). The plate was then incubated for 72 hr at 37° C., 5% CO2. Alamar Blue (10^4 per well) was added and the plates returned to the incubator for a further 4-8 hours.
The plates were then read using a fluorescence plate reader at excitation 544 nm and emission 590 nm.

[4] = biological target: T3, KDR protein kinase (Homo sapiens, UniProt P35968); assay: Alphascreen protein tyrosine kinase assay, KDR; assay type: biochemical
T3 construct: purchased Millipore 14-630M
T3 sequence (P35968 20-1356): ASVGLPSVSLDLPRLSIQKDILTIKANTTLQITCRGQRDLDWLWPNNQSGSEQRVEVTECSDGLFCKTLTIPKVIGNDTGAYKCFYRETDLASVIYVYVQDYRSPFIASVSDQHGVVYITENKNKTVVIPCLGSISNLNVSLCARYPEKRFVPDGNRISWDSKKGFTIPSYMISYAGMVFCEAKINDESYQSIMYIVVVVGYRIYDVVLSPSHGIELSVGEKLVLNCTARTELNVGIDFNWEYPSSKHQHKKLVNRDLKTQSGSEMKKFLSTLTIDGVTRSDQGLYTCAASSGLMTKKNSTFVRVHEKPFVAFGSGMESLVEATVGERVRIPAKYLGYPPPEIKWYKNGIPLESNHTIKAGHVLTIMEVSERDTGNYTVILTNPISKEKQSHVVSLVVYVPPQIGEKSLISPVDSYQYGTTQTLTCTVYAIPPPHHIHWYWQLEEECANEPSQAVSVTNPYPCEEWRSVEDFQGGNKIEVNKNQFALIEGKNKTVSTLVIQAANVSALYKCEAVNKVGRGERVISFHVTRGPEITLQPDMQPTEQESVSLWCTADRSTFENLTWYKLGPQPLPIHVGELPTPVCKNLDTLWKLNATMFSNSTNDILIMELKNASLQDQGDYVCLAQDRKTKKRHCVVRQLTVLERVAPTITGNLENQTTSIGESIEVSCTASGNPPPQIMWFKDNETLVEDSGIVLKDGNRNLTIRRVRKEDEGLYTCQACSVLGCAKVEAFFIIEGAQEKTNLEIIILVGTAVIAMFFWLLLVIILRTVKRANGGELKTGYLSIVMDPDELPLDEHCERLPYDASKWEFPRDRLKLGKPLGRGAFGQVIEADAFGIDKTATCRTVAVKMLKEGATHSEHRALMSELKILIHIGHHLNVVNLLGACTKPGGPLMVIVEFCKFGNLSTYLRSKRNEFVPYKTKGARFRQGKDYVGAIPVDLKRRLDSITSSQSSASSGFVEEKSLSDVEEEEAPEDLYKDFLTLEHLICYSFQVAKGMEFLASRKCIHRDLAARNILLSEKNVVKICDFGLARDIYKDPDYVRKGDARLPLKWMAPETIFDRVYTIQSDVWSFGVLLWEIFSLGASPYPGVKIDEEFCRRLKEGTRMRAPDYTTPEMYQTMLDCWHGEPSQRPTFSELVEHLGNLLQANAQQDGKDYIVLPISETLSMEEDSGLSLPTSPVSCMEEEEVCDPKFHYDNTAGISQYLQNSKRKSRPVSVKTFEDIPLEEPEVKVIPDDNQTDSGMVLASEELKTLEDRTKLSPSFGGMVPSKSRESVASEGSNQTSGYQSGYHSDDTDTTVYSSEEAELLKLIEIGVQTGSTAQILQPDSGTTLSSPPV
Procedure: For screening purposes, compounds were diluted in 96 well plates at a concentration of 20 μM. Plates were warmed at 37° C. for 30 minutes before assay.
FLT-3 and PDGFR β tyrosine kinase enzymes were purchased from Upstate Cell Signalling Solutions, CA, USA (flt-3 catalog #: 14-500 and PDGFR β catalog #: 14-463). KDR protein kinase enzyme was purchased from Millipore (catalogue #14-630M).
Kinase assays were performed in 384 well Optiplates (Packard) using an Alphascreen Protein Tyrosine Kinase kit. […] The biotinylated peptides Biotin-[…]-NH2 for c-KIT and PDGFRβ and Biotin-[…]-NH2 for CSF1-R and FLT-3 (final concentration 0.1-3 μM) were used as substrates. Alphascreen phosphotyrosine acceptor beads followed by streptavidin donor beads were added under subdued light. The Alphascreen plates were read on a Packard Fusion Alpha. Inhibitors were added to the assays thirty minutes prior to the addition of ATP. Inhibitors were added in aqueous DMSO, with DMSO concentrations never exceeding 1%.

Row | Structure (SMILES) | inhibition at 0.1 µM [1] [%] | inhibition at 1 µM [1] [%] | inhibition at 0.1 µM [2] [%] | inhibition at 1 µM [2] [%] | IC50 [3] [µM] | IC50 [4] [µM]
1 | C[C@H](Nc1cncc(Cl)n1)c1cccc(NC(=O)c2cccc(C(F)(F)F)c2)c1 [Compound 114, (S)—N-(3-(1-(6-chloropyrazin-2-ylamino)ethyl)phenyl)-3-(trifluoromethyl)benzamide] | 67 | 97 | 85 | 99 | > 10 | < 0.1
2 | Cc1cccc(C(=O)Nc2cccc([C@H](C)Nc3cncc(-n4ccnc4)n3)c2)c1 [Compound 143, (S)—N-(3-(1-(6-(1H-imidazol-1-yl)pyrazin-2-ylamino)ethyl)phenyl)-3-methylbenzamide] | 30 | 82 | 90 | 96 | < 10 | < 0.1
3 | Cc1cccc(C(=O)Nc2cccc([C@H](C)Nc3cncc(C(N)=O)n3)c2)c1 [Compound 133, (S)-6-(1-(3-(3-methylbenzamido)phenyl)ethylamino)pyrazine-2-carboxamide] | 7 | 64 | 92 | 99 | > 10 | < 0.1
4 | Cc1cccc(C(=O)Nc2ccc(C)c([C@H](C)Nc3cncc(Cl)n3)c2)c1 [Compound 168] | 91 | 102 | 91 | 100 | – | –

Continued, values first:

Row | inhibition at 0.1 µM [1] [%] | inhibition at 1 µM [1] [%] | inhibition at 0.1 µM [2] [%] | inhibition at 1 µM [2] [%] | IC50 [3] [µM] | IC50 [4] [µM] | Structure (SMILES)
5 | 66 | 99 | 98 | 100 | > 10 | < 0.1 | Cc1cccc(C(=O)Nc2cccc([C@H](C)Nc3cncc(-c4ccc(S(N)(=O)=O)cc4)n3)c2)c1 [Compound 77]
6 | 81 | 103 | 56 | 99 | > 10 | < 0.1 | C[C@H](Nc1cncc(-c2cccc(N3CCOCC3)c2)n1)c1cccc(NC(=O)c2cccc(C(F)(F)F)c2)c1 [Compound 149]
7 | 42 | 90 | 96 | 100 | < 10 | < 0.1 | Cc1cccc(C(=O)Nc2cccc([C@H](C)Nc3cncc(-c4ccc(N5CCN(C)CC5)cc4)n3)c2)c1 [Compound 129]
8 | 81 | 100 | 92 | 99 | < 10 | < 0.1 | C[C@H](Nc1cncc(-c2ccc(N3CCN(C)CC3)cc2)n1)c1cccc(NC(=O)c2cccc(C(F)(F)F)c2)c1 [Compound 148]
9 | 71 | 98 | 95 | 100 | > 10 | < 0.1 | Cc1cccc(C(=O)Nc2cccc([C@H](C)Nc3cncc(-c4cccc(N5CCOCC5)c4)n3)c2)c1 [Compound 147]
